{"source": "patent US20050232902A1", "about": "“Injectable bioartificial tissue matrix” (priority 2004, published 2005)", "key": {"[1]": {"test_system": "transplant cell viability and colonization", "assay": "Adjuvants compared with ascorbic acid in transplantable cell cultures (Example VI)", "format": "in vivo", "details": "treatment of cells prior to transplantation into a target organ", "text": "In separate experiments, treatment with other adjuvants or treatments were compared with treatment with ascorbic acid. [formula]"}, "chondrocytes": {"test_system": "chondrocytes", "details": "cited from earlier work"}, "injured myocardium": {"test_system": "injured myocardium", "assay": "Transplantation of hES-derived cardiomyocytes pretreated with ascorbic acid into LAD-ligated heart, graft/infarct ratio", "format": "in vivo, Mice", "text": "The ascorbic acid-treated cells can become large conglomerates of cells in the injected tissue and thereby can restore major portions of a damaged heart muscle when compared with tissue injected with untreated cells. The proportion of host tissue target organ restored by the grafted cultured cells can be evaluated by a measure termed the “graft/infarct ratio”. The graft/infarct ratio is the ratio of the portion of the ‘dead tissue’ area of the target organ that is restored and/or replaced by transplanted cells of bioartificial tissue. The ratio is determined by dividing a measured area of the restored and/or replaced area by the total measured area of ‘dead tissue’. In addition, a measure or growth and/or of viability can be determined by other methods known in the art. Such methods include, staining of tissue slices with trypan blue to determine extent of dye exclusion, determining nucleic acid uptake of tritiated thymidine into proliferating cells, and staining of tissue slices with toluidin blue to determine extent of dye uptake.\nHuman ES (hES) cell lines, H1 and H7 (Mummery et al., (2002) supra; Hescheler, B. K. et al. (1997) Cardiovasc. Res. 36:149-162) were initially maintained on feeders in ES medium containing 80% knockout Dulbecco's modified Eagle's medium (KO-DMEM) (Invitrogen, Carlsbad Calif.), 1 mM L-glutamine, 0.1 mM β-mercaptoethanol, 1% nonessential amino acids stock (Invitrogen), 20% Serum Replacement (Invitrogen, Carlsbad Calif.) and 4 ng/ml hbFGF (Invitrogen). The cells were later maintained using feeder-free conditions, herein described. Briefly, feeder-free cultures were passaged by incubation in 200 units/ml collagenase IV for 5-10 minutes at 37° C., dissociated and then seeded onto MATRIGEL-coated plates and maintained in conditioned medium (CM) prepared from primary mouse embryonic fibroblast cultures.\nConfluent H7 hES cell cultures were incubated with 0.5 mM EDTA in phosphate-buffered saline (PBS) at 37° C. for 8 min, dissociated, resuspended in CM and replated onto MATRIGEL-coated plates at ˜1×10^6 cells/cm^2. […]"}}, "data": [{"compound": "O=C1O[C@H]([C@@H](O)CO)C(O)=C1O", "note": "[ascorbic acid]", "values": [{"measurement": "Increase in transplant cell viability and colonization", "setting": "[1]", "result": "at least 47 fold"}, {"measurement": "Viable cells in the gelled culture", "setting": "chondrocytes; 2×10^5 cells starting number, 50 μg/ml ascorbic acid, three weeks in vitro", "result": "approximately 12×10^5 cells"}, {"measurement": "Increase in cell viability", "setting": "chondrocytes; chondrocytes incubated three weeks in vitro vs absence of ascorbic acid", "result": "approximately ten-fold"}, {"measurement": "Viable cells after three weeks incubation", "setting": "chondrocytes; starting number 2×10^6 cells", "result": "2.6×10^6 cells"}, {"measurement": "Increase of graft/infarct ratio compared with untreated cells", "setting": "injured myocardium; 24 hours (treated) vs six hours (untreated, R=0.09:1.0) after transplantation", "result": 4.6, "unit": "fold"}, {"measurement": "Effects on colonization and viability of pretreated cells at subsequent time points", "setting": "injured myocardium; 7 days, 14 days, and 28 days following transplantation", "result": "sustained"}, {"measurement": "Area of the tissue populated by transplanted cells", "setting": "injured myocardium; cells pretreated 24 hrs with 1 mM ascorbic acid, 24 hours following transplantation, total damaged area 536,594 μm^2, FIG. 5", "result": "215,525 μm^2"}]}]}
